Data: patent publication US11591334B2, “Substituted pyrrolizines for the treatment of hepatitis B” (SHANGHAI LONGWOOD BIOPHARMACEUTICALS CO., LTD., priority 2017, dated 2023)
Like-named read-outs stand apart in the source and are kept apart here.

Tests used:
C150 protein = target: T1, C150 protein (Hepatitis B virus genotype D subtype adw, UniProt P03147, C107A/C48A/C61A/R150C); assay: In vitro anti-HBV nucleocapsid assembly activity test (Experiment 1, protein experiment); assay type: biochemical
T1 construct: purchased WuXi Apptec Co., Ltd
Description: Experiment 1: In Vitro Anti-HBV Nucleocapsid Assembly Activity Test
Main Reagents and Raw Materials:
C150 protein was expressed and purified by WuXi Apptec Co., Ltd.
BoDIPY® FL was purchased from Thermo Fisher Scientific.
Protein Fluorescent Label:
150 μL of 2% w/v skimmed milk was added into each well of 96-well plate, and incubated at room temperature for 2 hours. The skimmed milk was aspirated. The plate was washed with deionized water and dried, and stored at room temperature. C150 protein (3 mg per tube) was desalted with 5 ml Hitrap desalting column. The desalted C150 protein of each tube was added with 50 mM BoDIPY® FL Fluorescent Dye (20 μl), and incubated under 4° C. overnight in the dark after well mixed. Sephadex G-25 gel was used for filtration to remove fluorescent dyes that were not bounded onto C150. The C150 fluorescent labeling efficiency was calculated according to the following equation: [BoDIPY®FL]=A504/78,000 M^−1; [C150Bo]=(A280−[BoDIPY®FL]×1300 M^−1)/60,900 M^−1; Fluorescent Labeling Efficiency=[BoDIPY®FL]/[C150Bo];
The mother liquor of compound was diluted with DMSO to 6 mM, then diluted to 600 μM with 50 mM HEPES, and then further 3-fold diluted with 10 DMSO/50 mM HEPES to 8 concentrations.
C150Bo was diluted to 2 μM with 50 mM HEPES. 37.5 μL of C150Bo and 2.5 μL of compound at each concentration were added into a 96 well plate and well mixed, then incubated at room temperature for 15 minutes. 10 μl of 750 mM NaCl/50 mM HEPES were added into the each reaction well, and the final concentration of NaCl was 150 mM.
Into the control wells in the 0% protein group 10 μL of 50 mM HEPES was added, and the final concentration of NaCl was 0 mM.
Into the control wells in the 100% protein group 10 μL of 5 M/50 mM HEPES was added, and the final concentration of NaCl was 1 M.
The final concentration of DMSO was 0.5%, the maximum final concentration of the compound was 30 μM, and final concentration of C150Bo was 1.5 μM. The mixture was incubated at room temperature for 1 hour. Fluorescence signal was measured (excitation light was 485 nm; emission light was 535 nm).
Data Analysis % protein assembly=[1−(Sample fluorescence value−1 M NaCl fluorescence value)/(0 M NaCl fluorescence value−1 M NaCl fluorescence value)]×100.
IC50 value was calculated by prism software, and the equation was as follows: Y=Bottom+(Top−Bottom)/(1+10^((LogIC50−X)HillSlope));

HBV = assay: Determination of anti-HBV activity in HepG2.2.15 cell (Experiment 2, HBV DNA in supernatant by qPCR); assay type: cell-based; conditions: Hepatitis B virus; HepG2.2.15 cells, HBV DNA in supernatant on the eighth day, qPCR; read-out: Experiment 2 Cell experiment EC50
Description: Experiment 2: Determination of Anti-HBV Activity in HepG2.2.15 Cell
(§1) Compound dilution. All the compounds for in vitro anti-HBV activity assay and cytotoxicity assay were 3-fold diluted into 8 concentrations. The final concentration of the tested compound was 30 μM, the final starting concentration of reference compound GLS4 was 1 μM, and the final concentration of DMSO was 0.5%.
HepG2.2.15 cell (4×10^4 cell/well) was inoculated into 96 well plate, and cultured overnight in 37° C., 5% CO2. On the second day, fresh culture medium containing different concentrations of the compound was added into the culture wells. On the fifth day, the old culture solution in the culture well was aspirated and fresh culture medium containing different concentrations of the compound was added.
On the eighth day, the supernatant in the culture well was collected for extraction of HBV DNA, and the content of DNA in the supernatant of HepG2.2.15 HBV was detected by qPCR. After the supernatant was collected, the medium and Cell-titer Glo reagent were added into the culture well, and the chemiluminescence value of each well was measured by microplate reader.
The activity calculation formula was as follows: Y=Bottom+(Top−Bottom)/(1+10^((LogIC50−X)*Hillslope));

[1] = Determination of cytotoxicity (Experiment 3, resazurin assay); assay type: cell-based; conditions: human; HepG2 cells, incubated for 4 days, resazurin assay; read-out: Experiment 3 Cytotoxicity CC50
Description: as §1, with “0.5%. Experiment 3: Determination of Cytotoxicity The cytotoxicity of the test compound was tested using HepG2 cells. The cells were incubated for 4 days in the presence of the test compound. Cell activity was assessed using the resazurin assay.” for “0.5%.”

[2] = fluorescently labeled C150 (C150Bo) 1.5 μM, 150 mM NaCl, 1 hour at room temperature, read-out: Experiment 1 Protein experiment IC50

T1 sequence (P03147 1-150 C48A/C61A/C107A/R150C): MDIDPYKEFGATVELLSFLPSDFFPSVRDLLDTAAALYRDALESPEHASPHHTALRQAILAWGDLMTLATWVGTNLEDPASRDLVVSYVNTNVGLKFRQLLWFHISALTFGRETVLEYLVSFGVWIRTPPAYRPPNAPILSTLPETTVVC

Row | Compound | IC50 (C150 protein; [2]) [nM] | EC50 (HBV) [nM] | CC50 at 4 days [1] [nM] | IC50 (C150 protein) [nM]
1 | C[C@@H](NS(=O)(=O)Nc1c(Cl)c(C(=O)Nc2ccc(F)c(F)c2)n2c1CCC2)C(F)(F)F [Compound 90a] | 1000 to 100000 | 0.1 to 100 | > 30000 | –
2 | C[C@@H](NS(=O)(=O)c1c(Cl)c(C(=O)Nc2ccc(F)c(C#N)c2)n2c1CCCC2)C(F)(F)F [Compound 40b] | – | 0.1 to 100 | > 30000 | 1000 to 100000
3 | CC(NC(=O)Nc1c(Cl)c(C(=O)Nc2ccnc(Cl)c2)n2c1CCCCC2)C(F)(F)F (stereo not drawn) [Compound 100q] | 1000 to 100000 | 0.1 to 100 | > 30000 | –
4 | CC(NS(=O)(=O)c1c2[nH]ccc2c(C(=O)Nc2ccc(F)c(C#N)c2)n1C)C(F)(F)F (stereo not drawn) [Compound 80b] | 1000 to 100000 | 100 to 1000 | > 30000 | –
5 | C[C@@H](NS(=O)(=O)c1c(Cl)c(C(=O)Nc2cc(F)c(F)c(F)c2)n2c1C=CC2)C(F)(F)F [Compound 10b] | – | 0.1 to 100 | > 30000 | 1000 to 100000
6 | Cc1c(S(=O)(=O)NC(C)CO)c2n(c1C(=O)Nc1ccnc(C(F)F)c1)CCC2 (stereo not drawn) [Compound 20ii] | 1000 to 100000 | 100 to 1000 | > 30000 | –
7 | CC(NS(=O)(=O)Nc1c(Cl)c(C(=O)Nc2ccnc(Cl)c2)n2c1CCC2)C(F)(F)F (stereo not drawn) [Compound 90b] | 1000 to 100000 | 0.1 to 100 | > 30000 | –
8 | Cc1c(S(=O)(=O)NC(C)CO)c2n(c1C(=O)Nc1cc(F)nc(C#N)c1)CCC2 (stereo not drawn) [Compound 20jj] | 1000 to 100000 | 100 to 1000 | > 30000 | –
9 | Cc1c(NC(=O)NC(C)C(F)(F)F)c2n(c1C(=O)Nc1ccnc(Cl)c1)CCC2 (stereo not drawn) [Compound 100d] | – | 0.1 to 100 | > 30000 | 1000 to 100000
10 | CC(CO)NS(=O)(=O)c1c(Cl)c(C(=O)Nc2ccnc(C(F)F)c2)n2c1CCC2 (stereo not drawn) [Compound 20ee] | 1000 to 100000 | 0.1 to 100 | > 30000 | –
11 | C[C@@H](NS(=O)(=O)c1c(Cl)c(C(=O)Nc2ccc(F)c(F)c2)n2c1CCCC2)C(F)(F)F [Compound 40a] | < 1000 | 0.1 to 100 | > 30000 | –
12 | O=C(Nc1ccc(F)c(F)c1)c1c(Cl)c(S(=O)(=O)NC2C3CCC2CC(O)(CO)C3)c2n1CCC2 (stereo not drawn) [Compound 20kk] | 1000 to 100000 | 0.1 to 100 | > 30000 | –
13 | CC(NS(=O)(=O)c1c2[nH]ccc2c(C(=O)Nc2cc(F)nc(C#N)c2)n1C)C(F)(F)F (stereo not drawn) [Compound 80d] | 1000 to 100000 | 0.1 to 100 | > 30000 | –
14 | C[C@@H](NS(=O)(=O)c1c(Cl)c(C(=O)Nc2ccc(F)c(C#N)c2)n2c1C=CC2)C(F)(F)F [Compound 10c] | – | 0.1 to 100 | > 30000 | 1000 to 100000
15 | C[C@@H](NS(=O)(=O)c1c(Cl)c(C(=O)Nc2ccc(F)c(F)c2)n2c1CCCCC2)C(F)(F)F [Compound 60a] | > 100000 | 0.1 to 100 | > 30000 | –
16 | Cc1c(S(=O)(=O)NC2(C)COC2)c2n(c1C(=O)Nc1ccnc(C(F)F)c1)CC=C2 [Compound 10aa] | 1000 to 100000 | 100 to 1000 | > 30000 | –
17 | C[C@@H](NS(=O)(=O)c1c(Cl)c(C(=O)Nc2ccc(F)c(F)c2)n2c1C=CC2)C(F)(F)F [Compound 10a] | 1000 to 100000 | 0.1 to 100 | > 30000 | –
18 | N#Cc1cc(NC(=O)c2c(Cl)c(S(=O)(=O)NC3C4CCC3CC(O)(CO)C4)c3n2CCC3)cc(F)n1 (stereo not drawn) [Compound 20ll] | 1000 to 100000 | 0.1 to 100 | > 30000 | –

Row | Compound | IC50 (C150 protein; [2]) [nM] | EC50 (HBV) [nM] | CC50 at 4 days [1] [nM] | IC50 (C150 protein) [nM]
19 | CC(NS(=O)(=O)c1c2ncccc2c(C(=O)Nc2ccc(F)c(C#N)c2)n1C)C(F)(F)F (stereo not drawn) [Compound 70b] | > 100000 | 0.1 to 100 | > 30000 | –
20 | Cn1c(C(=O)Nc2cc(F)nc(C#N)c2)c2cc[nH]c2c1S(=O)(=O)NC1(C)COC1 [Compound 80f] | 1000 to 100000 | 0.1 to 100 | > 30000 | –
21 | Cc1c(NC(=O)NC2(C)COC2)c2n(c1C(=O)Nc1cc(F)nc(C#N)c1)CCCCC2 [Compound 100r] | 1000 to 100000 | 0.1 to 100 | > 30000 | –
22 | Cc1c(S(=O)(=O)NC(C)C(F)(F)F)c2n(c1C(=O)Nc1ccc(F)c(C#N)c1)CCCC2 (stereo not drawn) [Compound 40f] | 1000 to 100000 | 0.1 to 100 | > 30000 | –
23 | C[C@@H](NS(=O)(=O)c1c(Cl)c(C(=O)Nc2ccc(F)c(C#N)c2)n2c1C=CCC2)C(F)(F)F [Compound 30b] | – | 0.1 to 100 | > 30000 | 1000 to 100000
24 | CC(NS(=O)(=O)c1c(Cl)c(C(=O)Nc2ccnc(C(F)F)c2)n2c1C=CC2)C(F)(F)F (stereo not drawn) [Compound 10d] | 1000 to 100000 | 100 to 1000 | > 30000 | –
25 | C[C@@H](NS(=O)(=O)c1c(Cl)c(C(=O)Nc2ccc(F)c(C#N)c2)n2c1C=CCCC2)C(F)(F)F [Compound 50b] | – | 0.1 to 100 | > 30000 | > 100000
26 | CC(NS(=O)(=O)c1c(Cl)c(C(=O)Nc2cc(F)nc(C#N)c2)n2c1C=CC2)C(F)(F)F (stereo not drawn) [Compound 10f] | – | 0.1 to 100 | > 30000 | 1000 to 100000
27 | CC(NS(=O)(=O)c1c(Cl)c(C(=O)Nc2ccc(F)c(F)c2)n2c1CCC2)C(F)(F)F (stereo not drawn) [Compound 20a] | 1000 to 100000 | 0.1 to 100 | > 30000 | –
28 | CC(CO)NS(=O)(=O)c1c(Cl)c(C(=O)Nc2cc(F)nc(C#N)c2)n2c1CCC2 (stereo not drawn) [Compound 20ff] | 1000 to 100000 | 0.1 to 100 | > 30000 | –
29 | CC(CO)NC(=O)Nc1c(Cl)c(C(=O)Nc2cc(F)nc(C#N)c2)n2c1CCCC2 (stereo not drawn) [Compound 100p] | 1000 to 100000 | 0.1 to 100 | > 30000 | –
30 | Cc1c(S(=O)(=O)NC2C3CCC2CC(O)(CO)C3)c2n(c1C(=O)Nc1ccc(F)c(F)c1)CC=C2 (stereo not drawn) [Compound 10mm] | 1000 to 100000 | 100 to 1000 | > 30000 | –
31 | C[C@@H](NS(=O)(=O)c1c(Cl)c(C(=O)Nc2ccc(F)c(C#N)c2)n2c1CCCCC2)C(F)(F)F [Compound 60b] | – | 0.1 to 100 | > 30000 | 1000 to 100000
32 | Cc1c(S(=O)(=O)NC(C)C(F)(F)F)c2n(c1C(=O)Nc1ccc(F)c(F)c1)CC=C2 (stereo not drawn) [Compound 10g] | 1000 to 100000 | 0.1 to 100 | > 30000 | –
33 | O=C(Nc1ccc(F)c(F)c1)c1c(Cl)c(S(=O)(=O)NC2C3CCC2CC(O)(c2cc(-c4ccccc4)on2)C3)c2n1CC=C2 (stereo not drawn) [Compound 10oo] | 1000 to 100000 | 100 to 1000 | > 30000 | –
34 | CC(CO)NS(=O)(=O)c1c(Cl)c(C(=O)Nc2ccc(F)c(C#N)c2)n2c1CCC2 (stereo not drawn) [Compound 20dd] | 1000 to 100000 | 100 to 1000 | > 30000 | –
35 | Cc1c(S(=O)(=O)NC(C)C(F)(F)F)c2n(c1C(=O)Nc1ccc(F)c(F)c1)CCCC2 (stereo not drawn) [Compound 40e] | 1000 to 100000 | 0.1 to 100 | > 30000 | –
